Assay results: ChEMBL document CHEMBL3758115, “Bacaryolanes A-C, Rare Bacterial Caryolanes from a Mangrove Endophyte” (2015)

Key:
Bacillus spizizenii [1] = assay: Antibacterial activity against Bacillus subtilis ATCC 6633 at 50 ug/disk after 24 hrs; assay type: functional; settings: ATCC 6633, 24 h, read-out: IZ
Bacillus spizizenii [2] = assay: Antibacterial activity against Bacillus subtilis ATCC 6633 at 0.25 ug/disk after 24 hrs; assay type: functional; settings: ATCC 6633, 24 h, read-out: IZ

With `CC1(C)C[C@@H]2[C@@H]1[C@@H](O)C[C@@]1(C)CCC[C@]2(O)C1` the zone of inhibition at 50 µg/disc (Bacillus spizizenii [1]) was 10 mm.
`O=C(N[C@H](CO)[C@H](O)c1ccc([N+](=O)[O-])cc1)C(Cl)Cl` [CHLORAMPHENICOL] was tested, and the zone of inhibition at 0.25 µg/disc (Bacillus spizizenii [2]) was 28 mm.
